This passage reports IC50 results from patent US20260158017A1, “KIF18A INHIBITOR” (WIGEN BIOMEDICINE TECHNOLOGY (SHANGHAI) CO., LTD., priority 2021, published 2026).

For the experiment, the target named is T1, Recombinant human KIF18A (1-467His-tagged) protein (Homo sapiens, UniProt Q8NI77).
T1 construct: Recombinant human KIF18A (1-467His-tagged) protein; His; made in house
T1 sequence (Q8NI77 1-467): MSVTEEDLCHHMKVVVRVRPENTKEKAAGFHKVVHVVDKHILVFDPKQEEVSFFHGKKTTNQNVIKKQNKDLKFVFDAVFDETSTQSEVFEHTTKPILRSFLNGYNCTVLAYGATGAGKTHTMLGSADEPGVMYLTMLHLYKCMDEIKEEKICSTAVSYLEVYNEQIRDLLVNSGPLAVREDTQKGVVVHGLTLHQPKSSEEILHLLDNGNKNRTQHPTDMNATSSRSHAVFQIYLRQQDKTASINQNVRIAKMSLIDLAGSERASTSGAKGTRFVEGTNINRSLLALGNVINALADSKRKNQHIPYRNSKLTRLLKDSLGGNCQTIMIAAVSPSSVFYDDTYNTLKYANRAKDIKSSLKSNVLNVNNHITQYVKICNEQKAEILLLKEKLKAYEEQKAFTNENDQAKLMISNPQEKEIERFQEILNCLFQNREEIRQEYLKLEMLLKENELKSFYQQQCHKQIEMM
T1 sequence (P02550 whole entry partner): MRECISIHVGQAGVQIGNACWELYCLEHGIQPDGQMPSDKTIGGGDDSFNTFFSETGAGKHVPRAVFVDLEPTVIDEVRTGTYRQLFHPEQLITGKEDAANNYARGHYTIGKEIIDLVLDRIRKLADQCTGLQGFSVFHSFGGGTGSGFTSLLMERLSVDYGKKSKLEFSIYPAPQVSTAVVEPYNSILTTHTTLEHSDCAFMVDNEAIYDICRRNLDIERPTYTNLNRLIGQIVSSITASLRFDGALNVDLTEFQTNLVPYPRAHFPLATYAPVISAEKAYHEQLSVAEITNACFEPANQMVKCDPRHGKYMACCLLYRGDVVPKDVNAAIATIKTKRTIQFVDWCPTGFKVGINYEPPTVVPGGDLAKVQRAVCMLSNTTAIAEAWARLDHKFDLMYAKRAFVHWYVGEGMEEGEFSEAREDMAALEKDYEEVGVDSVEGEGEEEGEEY
T1 sequence (P02554 whole entry partner): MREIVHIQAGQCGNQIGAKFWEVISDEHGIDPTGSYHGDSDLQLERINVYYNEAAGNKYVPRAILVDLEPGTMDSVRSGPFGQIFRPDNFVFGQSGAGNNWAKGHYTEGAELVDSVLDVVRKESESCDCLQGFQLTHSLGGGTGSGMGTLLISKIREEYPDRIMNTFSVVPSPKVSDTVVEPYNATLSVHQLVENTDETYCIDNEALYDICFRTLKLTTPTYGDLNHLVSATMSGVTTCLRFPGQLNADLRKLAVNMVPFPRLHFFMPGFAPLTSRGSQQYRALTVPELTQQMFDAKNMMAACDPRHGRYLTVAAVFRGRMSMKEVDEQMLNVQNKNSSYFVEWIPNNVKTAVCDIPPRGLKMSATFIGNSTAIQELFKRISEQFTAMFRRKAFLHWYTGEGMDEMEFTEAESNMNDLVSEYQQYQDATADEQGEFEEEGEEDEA
Briefly: KIF18A enzyme assay (microtubule-stimulated ATPase activity, ADP-Glo). It is filed as biochemical. The note with it: 30 nM KIF18A, 75 μM ATP, 30 μg/mL pig microtubules; read-out: Inhibitory activity against KIF18A IC50. The essentials:
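Buffer 15 mM Tris pH 7.5, 10 mM MgCl2, 0.01% Pluronic F-68, 1 μM paclitaxel, 30 μg/mL pig microtubules; reactions at room temperature. IC50 from inhibition relative to DMSO.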
For `O=C(Nc1ccc(NS(=O)(=O)CCO)cc1N1CCC2(CC1)CC2)c1ccc([N+](=O)[O-])c(N2CC3CC3C2)c1` (stereo not drawn) [Compound 42], the IC50 is ≤ 0.1 µM.
Turning to `C[C@@H]1CN(c2cc(NC(=O)c3cnc(NS(=O)(=O)[C@H](C)CO)cc3N3CCC4(CC3)CC4)ccc2OCF)CCO1` [Compound 464], the IC50 is ≤ 0.1 µM.
Under `C[C@H](CO)S(=O)(=O)Nc1ccc(C(=O)Nc2ccc(OCF)c(N3CCC(F)(F)CC3)n2)c(N2CCC3(CC2)CC3)c1` [Compound 430] stands ≤ 0.1 µM; under `CC1(F)CCN(c2nc(C(=O)Nc3ccc(S(=O)(=O)NCCO)cc3N3CCC4(CC3)CC4)ccc2[N+](=O)[O-])C1` (stereo not drawn) [Compound 184], 0.1 to 0.5 µM.
Regarding `COc1ccc(C(=O)Nc2cnc(NS(=O)(=O)CCO)cc2N2CCC3(CC2)CC3)nc1NC(C)(C)CO` [Compound 363], the IC50 is ≤ 0.1 µM.
Consider `COc1ccc(C(=O)Nc2ccc(NS(=O)(=O)CCO)cc2N2CCC3(CC2)CC3)nc1N1CCO[C@@H](C)C1` [Compound 323], for which the IC50 was ≤ 0.1 µM.
With `CSc1ccc(NC(=O)c2ccc(NS(=O)(=O)CCO)cc2N2CCC3(CC2)CC3)nc1N1CCC(C)(F)C1` (stereo not drawn) [Compound 600] the figure was ≤ 0.1 µM; with `O=C(Nc1cnc(NS(=O)(=O)CCO)cc1N1CCC2(CC1)CC2)c1ccc([N+](=O)[O-])c(OCCC(F)(F)F)c1` [Compound 197], ≤ 0.1 µM; with `CSc1ccc(NC(=O)c2cnc(NS(=O)(=O)[C@@H](C)CO)cc2N2CCC3(CC2)CC3)cc1N1CCO[C@H](C)C1` [Compound 623], ≤ 0.1 µM.
As for `O=C(Nc1ccc(OCF)c(N2CCC3(CC3)C2)c1)c1ccc(NS(=O)(=O)CCO)cc1N1CCC2(CC1)CC2` [Compound 390], the IC50 was ≤ 0.1 µM.
For the compound `COc1ccc(NC(=O)c2cnc(NS(=O)(=O)[C@H](C)CO)cc2N2CCC3(CC2)CC3)nc1N1CCO[C@H](C)C1` [Compound 304], the IC50 was ≤ 0.1 µM.
With `COc1ccc(NC(=O)c2ccc(S(=O)(=O)NCCO)cc2N2CCC3(CC2)CC3)nc1N1CC(F)(F)C1` [Compound 276] the figure was ≤ 0.1 µM; with `C[C@@H]1CN(c2cc(C(=O)Nc3ccc(NS(=O)(=O)[C@H](C)CO)cc3N3CCC4(CC3)CC4)ccc2[N+](=O)[O-])CCO1` [Compound 48], 0.1 to 0.5 µM; with `O=C(Nc1ccc(S(=O)(=O)NCCO)cc1N1CCC2(CC1)CC2)c1ccc(OCF)c(N2CCC(F)(F)CC2)n1` [Compound 561], 0.1 to 0.5 µM.
Turning to `CSc1ccc(NC(=O)c2cnc(NS(=O)(=O)[C@H](C)CO)cc2N2CCC3(CC2)CC3)nc1N1CCC(F)(F)CC1` [Compound 638], the IC50 was ≤ 0.1 µM.
Regarding `O=C(Nc1ccc(NS(=O)(=O)CCO)cc1N1CCC2(CC1)CC2)c1ccc([N+](=O)[O-])c(N2CC3CC3C2)n1` (stereo not drawn) [Compound 170], the IC50 is ≤ 0.1 µM.
Turning to `C[C@@H]1CN(c2nc(NC(=O)c3cnc(S(=O)(=O)NCCO)cc3N3CCC4(CC3)CC4)ccc2[N+](=O)[O-])CCO1` [Compound 146], the IC50 was ≤ 0.1 µM.
With `C[C@H](CO)NS(=O)(=O)c1ccc(C(=O)Nc2ccc(OCF)c(N3CCC(F)(F)CC3)n2)c(N2CCC3(CC2)CC3)c1` [Compound 446] the figure was ≤ 0.1 µM; with `C[C@@H]1CN(c2cc(C(=O)Nc3ccc(NS(=O)(=O)CCO)cc3N3CCC4(CC3)CC4)ccc2OCF)CCO1` [Compound 514], ≤ 0.1 µM; with `COc1ccc(C(=O)Nc2cnc(S(=O)(=O)NCCO)cc2N2CCC3(CC2)CC3)nc1N1CC2CC2C1` (stereo not drawn) [Compound 378], ≤ 0.1 µM.
On to `COc1ccc(NC(=O)c2ccc(S(=O)(=O)NCCO)cc2N2CCC3(CC2)CC3)nc1N1CCO[C@@H](C)C1` [Compound 275], for which the IC50 was ≤ 0.1 µM.
Under `COc1ccc(C(=O)Nc2cnc(NS(=O)(=O)CCO)cc2N2CCC3(CC2)CC3)nc1N1CCC(C)(F)C1` (stereo not drawn) [Compound 360] stands ≤ 0.1 µM.
Under `CSc1ccc(NC(=O)c2cnc(NS(=O)(=O)CCO)cc2N2CCC3(CC2)CC3)nc1N1CCC(F)(F)CC1` [Compound 625] stands ≤ 0.1 µM.
`COc1ccc(C(=O)Nc2ccc(S(=O)(=O)NCCO)cc2N2CCC3(CC2)CC3)nc1OC1CCC1` [Compound 343]: the IC50 was ≤ 0.1 µM.
With `O=C(Nc1ccc([N+](=O)[O-])c(N2CCC(F)CC2)n1)c1ccc(S(=O)(=O)NCCO)cc1N1CCC2(CC1)CC2` [Compound 89] the figure was ≤ 0.1 µM.
With `O=C(Nc1ccc([N+](=O)[O-])c(N2CCOCC2)c1)c1ccc(NS(=O)(=O)CCO)cc1N1CCC2(CC1)CC2` [Compound 12] the figure was ≤ 0.1 µM; with `O=C(Nc1ccc([N+](=O)[O-])c(N2CCOCC2)n1)c1cnc(S(=O)(=O)NCCO)cc1N1CCC2(CC1)CC2` [Compound 156], ≤ 0.1 µM.
On to `COc1ccc(C(=O)Nc2cnc(S(=O)(=O)NCCO)cc2N2CCC3(CC2)CC3)nc1OC1CCC1` [Compound 375], for which the IC50 is ≤ 0.1 µM.
Take `C[C@@H]1CN(c2cc(C(=O)Nc3cnc(NS(=O)(=O)CCO)cc3N3CCC4(CC3)CC4)ccc2[N+](=O)[O-])CCO1` [Compound 194]: the IC50 is ≤ 0.1 µM.
Under `CC(C)(CO)Nc1nc(C(=O)Nc2cnc(S(=O)(=O)NCCO)cc2N2CCC3(CC2)CC3)ccc1OCF` [Compound 507] stands ≤ 0.1 µM.
Under `C[C@H](CO)NS(=O)(=O)c1ccc(NC(=O)c2ccc([N+](=O)[O-])c(N3CCC(F)(F)CC3)n2)c(N2CCC3(CC2)CC3)c1` [Compound 190] stands 0.1 to 0.5 µM; under `O=C(Nc1ccc([N+](=O)[O-])c(N2CC3CC3C2)n1)c1cnc(NS(=O)(=O)CCO)cc1N1CCC2(CC1)CC2` (stereo not drawn) [Compound 138], ≤ 0.1 µM; under `C[C@@H]1CN(c2cc(C(=O)Nc3ccc(S(=O)(=O)N[C@@H](C)CO)cc3N3CCC4(CC3)CC4)ccc2OCF)CCO1` [Compound 543], 0.1 to 0.5 µM.
As for `C[C@@H]1CN(c2nc(C(=O)Nc3ccc(NS(=O)(=O)[C@@H](C)CO)cc3N3CCC4(CC3)CC4)ccc2OCF)CCO1` [Compound 559], the IC50 was ≤ 0.1 µM.
`O=C(Nc1cnc(S(=O)(=O)NCCO)cc1N1CCC2(CC1)CC2)c1ccc([N+](=O)[O-])c(N2CCC(F)(F)CC2)n1` [Compound 241]: the IC50 fell in the range of 0.1 to 0.5 µM.
Under `C[C@H]1CN(c2nc(NC(=O)c3ccc(S(=O)(=O)NCCO)cc3N3CCC4(CC3)CC4)ccc2[N+](=O)[O-])CCO1` [Compound 83] stands ≤ 0.1 µM.
For `C[C@H]1CN(c2cc(C(=O)Nc3ccc(S(=O)(=O)NCCO)cc3N3CCC4(CC3)CC4)ccc2[N+](=O)[O-])CCO1` [Compound 51], the IC50 lay in the range of 0.1 to 0.5 µM.
Under `CSc1ccc(NC(=O)c2cnc(NS(=O)(=O)CCO)cc2N2CCC3(CC2)CC3)cc1N1CCO[C@H](C)C1` [Compound 610] stands ≤ 0.1 µM.
Take `C[C@@H]1CN(c2nc(NC(=O)c3ccc(NS(=O)(=O)CCO)cc3N3CCC4(CC3)CC4)ccc2[N+](=O)[O-])CCO1` [Compound 66]: the IC50 was ≤ 0.1 µM.
Under `O=C(Nc1ccc(S(=O)(=O)NCCO)cc1N1CCC2(CC1)CC2)c1ccc([N+](=O)[O-])c(N2CC3CC3C2)n1` (stereo not drawn) [Compound 186] stands 0.1 to 0.5 µM; under `O=C(Nc1cnc(NS(=O)(=O)CCO)cc1N1CCC2(CC1)CC2)c1ccc([N+](=O)[O-])c(N2CC3CC3C2)c1` (stereo not drawn) [Compound 202], ≤ 0.1 µM.
For the compound `O=C(Nc1ccc(S(=O)(=O)NCCO)cc1N1CCC2(CC1)CC2)c1ccc([N+](=O)[O-])c(OCCC(F)(F)F)c1` [Compound 53], the IC50 lay in the range of 0.1 to 0.5 µM.
As to `O=C(Nc1ccc(OCF)c(N2CC(F)(F)C2)n1)c1cnc(NS(=O)(=O)CCO)cc1N1CCC2(CC1)CC2` [Compound 484], the IC50 was ≤ 0.1 µM.
Take `COc1ccc(NC(=O)c2cnc(S(=O)(=O)N[C@@H](C)CO)cc2N2CCC3(CC2)CC3)nc1N1CCO[C@H](C)C1` [Compound 319]: the IC50 is ≤ 0.1 µM.
Under `C[C@H]1CN(c2cc(C(=O)Nc3cnc(S(=O)(=O)NCCO)cc3N3CCC4(CC3)CC4)ccc2[N+](=O)[O-])CCO1` [Compound 211] stands 0.1 to 0.5 µM; under `O=C(Nc1ccc(S(=O)(=O)NCCO)cc1N1CCC2(CC1)CC2)c1ccc(OCF)c(N2CCC(F)CC2)c1` [Compound 537], 0.1 to 0.5 µM; under `O=C(Nc1cnc(S(=O)(=O)NCCO)cc1N1CCC2(CC1)CC2)c1ccc([N+](=O)[O-])c(N2CC(F)(F)C2)c1` [Compound 212], 0.1 to 0.5 µM.
As for `O=C(Nc1ccc(NS(=O)(=O)CCO)cc1N1CCC2(CC1)CC2)c1ccc([N+](=O)[O-])c(N2CCC(F)(F)CC2)c1` [Compound 33], the IC50 is ≤ 0.1 µM.
With `CC1(F)CCN(c2nc(NC(=O)c3cnc(NS(=O)(=O)CCO)cc3N3CCC4(CC3)CC4)ccc2[N+](=O)[O-])C1` (stereo not drawn) [Compound 136] the figure was ≤ 0.1 µM; with `C[C@H]1CN(c2cc(NC(=O)c3cnc(NS(=O)(=O)CCO)cc3N3CCC4(CC3)CC4)ccc2[N+](=O)[O-])CCO1` [Compound 99], ≤ 0.1 µM.
As to `COc1ccc(C(=O)Nc2cnc(S(=O)(=O)NCCO)cc2N2CCC3(CC2)CC3)nc1N1CCC2(CC2)C1` [Compound 374], the IC50 is ≤ 0.1 µM.
Under `O=C(Nc1ccc(OCF)c(OCCC(F)(F)F)n1)c1cnc(S(=O)(=O)NCCO)cc1N1CCC2(CC1)CC2` [Compound 501] stands ≤ 0.1 µM.
Under `C[C@@H](CO)S(=O)(=O)Nc1cc(N2CCC3(CC2)CC3)c(C(=O)Nc2ccc(OCF)c(N3CCC(F)(F)CC3)c2)cn1` [Compound 461] stands ≤ 0.1 µM.
With `CC(C)(CO)Nc1cc(NC(=O)c2ccc(NS(=O)(=O)CCO)cc2N2CCC3(CC2)CC3)ccc1[N+](=O)[O-]` [Compound 11] the figure was ≤ 0.1 µM.
As to `O=C(Nc1ccc(NS(=O)(=O)CCO)cc1N1CCC2(CC1)CC2)c1ccc([N+](=O)[O-])c(N2CCC(F)CC2)n1` [Compound 169], the IC50 was ≤ 0.1 µM.
Consider `O=C(Nc1ccc([N+](=O)[O-])c(N2CCC3(CC3)C2)n1)c1cnc(S(=O)(=O)NCCO)cc1N1CCC2(CC1)CC2` [Compound 150], for which the IC50 was ≤ 0.1 µM.
With `O=C(Nc1ccc(OCF)c(N2CCC(F)CC2)n1)c1cnc(S(=O)(=O)NCCO)cc1N1CCC2(CC1)CC2` [Compound 505] the figure was ≤ 0.1 µM.

As usually defined, the IC50 is the concentration at which inhibition is half-maximal.
